The values that follow come from patent publication US20190008795A1, “COMPOSITIONS FOR TOPICAL APPLICATION OF COMPOUNDS” (Illustris Pharmaceuticals, Inc., priority 2016, published 2019).

Data set [1] in a line: Gabapentin delivery into porcine skin grafts, UPLC-mass spectrometer. In kind it is in vitro ADME. As to conditions: 1% gabapentin in saline, 12-20 hours. Here is the method: Delivery of gabapentin with hyaluronic acid into skin in vitro was measured using porcine skin grafts, and compared to delivery of gabapentin from a composition of gabapentin in saline (with no decoy molecule). Groups consisted of A) 1% gabapentin in saline (n=8 replicates), B) 1% gabapentin plus 1% sodium hyaluronate decoy of 3,000 Da in saline (n=8 replicates) or C) saline alone (n=8 replicates) in donor cells.
Briefly, tissues were incubated overnight in 0.5 mL of 50% acetonitrile in deionized water at 55° C. with agitation. Calibration standards and tissue extraction solvent samples were diluted 10× in deionized water before analysis. Diluted standards and samples were analyzed at 1 μL injection volumes. Concentrations were reported as μg/g of gabapentin in tissue.

For data set [2] the following is noted: 1 wt. % minocycline, 1% hyaluronic acid decoy or none, p=0.0004. The method, then: Delivery of minocycline into porcine skin in vitro was measured and compared to delivery of minocycline from a composition of minocycline in saline (i.e, with no decoy molecule). Compositions were prepared containing of 1 wt. % minocycline and 1% of decoy molecule of hyaluronic acid with three molecular weights: 10,000 Da mean, 20,000 Da mean, and 30,000 Da mean. A control formulation containing 1 wt % minocycline in saline was also prepared

The nature of data set [3]: Transdermal delivery of a small molecule compound (summary). The data set is classed as in vitro ADME. Further details: key: 0: on a scale using +symbols to reflect extent of the effect; −: on a scale using +symbols to reflect extent of the effect; +/−: on a scale using +symbols to reflect extent of the effect; on a scale using +symbols to reflect extent of the effect; ++: on a scale using +symbols to reflect extent of the effect; +++: on a scale using +symbols to reflect extent of the effect; ++++: on a scale using +symbols to reflect extent of the effect; +++++: on a scale using +symbols to reflect extent of the effect. As to conditions: compound of less than about 850 Da, hyaluronic acid decoy. The text has this:
(§1) It will be appreciated that Examples 1-6, 11, 12 illustrate hyaluronic acid as a decoy molecule exemplary of the decoy molecules contemplated herein. As described above, decoy molecules of collagen and elastin are contemplated, where the molecular weight of the decoy molecule can be selected to tailor the delivery of the agent of interest across the skin. The table below summarizes the effect of the decoy molecule (using the hyaluronic acid as exemplary) on the transdermal delivery of a small molecule compound (e.g, one with a molecular weight of less than about 850 Da), on the transdermal delivery of a macromolecule compound (e.g, a peptide or a protein), on the extent of penetration of the decoy molecule into skin upon topical application, and on the enhancement of water content in skin by the decoy molecule, on a scale using +symbols to reflect extent of the effect.

Data set [4] in a line: Transdermal delivery of a macromolecule compound (summary). In kind it is in vitro ADME. Further details: key: 0: on a scale using +symbols to reflect extent of the effect; −: on a scale using +symbols to reflect extent of the effect; +/−: on a scale using +symbols to reflect extent of the effect; on a scale using +symbols to reflect extent of the effect; ++: on a scale using +symbols to reflect extent of the effect; +++: on a scale using +symbols to reflect extent of the effect; ++++: on a scale using +symbols to reflect extent of the effect; +++++: on a scale using +symbols to reflect extent of the effect. As to conditions: peptide or protein, hyaluronic acid decoy.
Description: as §1

Data set [5] can be described thus: Penetration of the decoy molecule into skin upon topical application (summary). The data set is classed as in vitro ADME. Details: key: 0: on a scale using +symbols to reflect extent of the effect; −: on a scale using +symbols to reflect extent of the effect; +/−: on a scale using +symbols to reflect extent of the effect; on a scale using +symbols to reflect extent of the effect; ++: on a scale using +symbols to reflect extent of the effect; +++: on a scale using +symbols to reflect extent of the effect; ++++: on a scale using +symbols to reflect extent of the effect; +++++: on a scale using +symbols to reflect extent of the effect.
Description: as §1

Where [6] appears, read: listed as disaccharide (400 Da).

As for `NCC1(CC(=O)O)CCCCC1` [gabapentin alone, gabapentin], the gabapentin tissue levels in data set [1] is recorded as 0.09 μg of gabapentin per gram of tissue.
With `CN(C)c1ccc(O)c2c1C[C@H]1C[C@H]3[C@H](N(C)C)C(O)=C(C(N)=O)C(=O)[C@@]3(O)C(O)=C1C2=O` [minocycline], in data set [2], the “penetration of minocycline into porcine skin” value was “low native penetration”.
“hyaluronic acid [Hyaluronic Acid 10,000 Da]”: the “Delivery of a Small Molecule Compound” value in data set [3] (listed as 10,000 Da) is reported as “+++”. In addition, in data set [4] (listed as 10,000 Da), the “Delivery of a Macromolecule Compound” value is given as “++”. Besides, the “Hyaluronic Acid Skin Penetration” value in data set [5] (listed as 10,000 Da) was “++”.
For “hyaluronic acid [Hyaluronic Acid 20,000 Da]”, in data set [3] (listed as 20,000 Da), the “Delivery of a Small Molecule Compound” value was “++++”. In data set [4] (listed as 20,000 Da), the “Delivery of a Macromolecule Compound” value is listed as “+++++”. In addition, the “Hyaluronic Acid Skin Penetration” value in data set [5] (listed as 20,000 Da) is on record as “++”.
With “hyaluronic acid [Hyaluronic Acid 100,000 Da degraded]”, in data set [3] (listed as 100,000 Da degraded), the “Delivery of a Small Molecule Compound” value is “++++”. The “Delivery of a Macromolecule Compound” value in data set [4] (listed as 100,000 Da degraded) is “+++”. Also, the “Hyaluronic Acid Skin Penetration” value in data set [5] (listed as 100,000 Da degraded) was “+++”.
Regarding “hyaluronic acid [Hyaluronic Acid 100,000 Da]”, in data set [3] (listed as 100,000 Da), the “Delivery of a Small Molecule Compound” value came to 0. For the same molecule, the “Delivery of a Macromolecule Compound” value in data set [4] (listed as 100,000 Da) is 0. Also, in data set [5] (listed as 100,000 Da), the “Hyaluronic Acid Skin Penetration” value is “+/−”.
As to “hyaluronic acid [Hyaluronic Acid 3000 Da]”, the “Delivery of a Small Molecule Compound” value in data set [3] (listed as 3000 Da) is “+++”. In data set [4] (listed as 3000 Da), the “Delivery of a Macromolecule Compound” value is reported as “+”. Moreover, the “Hyaluronic Acid Skin Penetration” value in data set [5] (listed as 3000 Da) was “++++”.
For “hyaluronic acid [Hyaluronic Acid 5000 Da]”, the “Delivery of a Small Molecule Compound” value in data set [3] (listed as 5000 Da) is reported as “+”. Besides, the “Delivery of a Macromolecule Compound” value in data set [4] (listed as 5000 Da) is recorded as “+”. The “Hyaluronic Acid Skin Penetration” value in data set [5] (listed as 5000 Da) is on record as “+++”.
On to “hyaluronic acid [Hyaluronic Acid degraded 5000 Da]”, for which the “Delivery of a Small Molecule Compound” value in data set [3] (listed as degraded 5000 Da) was “−”. The “Delivery of a Macromolecule Compound” value in data set [4] (listed as degraded 5000 Da) is listed as “−”. The “Hyaluronic Acid Skin Penetration” value in data set [5] (listed as degraded 5000 Da) was “++++”.
As to “hyaluronic acid [Hyaluronic Acid disaccharide (400 Da)]”, in data set [3] (setting [6]), the “Delivery of a Small Molecule Compound” value is listed as 0. For the same molecule, the “Delivery of a Macromolecule Compound” value in data set [4] (setting [6]) was found to be 0. For the same molecule, in data set [5] (setting [6]), the “Hyaluronic Acid Skin Penetration” value is recorded as “+++++”.
